Measured values reported in publication PMC8296708, “The pan HDAC inhibitor Givinostat improves muscle function and histological parameters in two Duchenne muscular dystrophy murine models expressing different haplotypes of the LTBP4 gene” (Skeletal Muscle, 2021).

What was measured:
plasma miRNA of mdx mice = experiment: Whole-genome plasma miRNA expression profiling (small RNA sequencing) in mdx mice; assay type: in vivo, mouse (C57BL/10ScSn-Dmd^mdx/J); conditions: Givinostat 37.5 mg/kg vs vehicle
Experimental: Blood samples were taken from the retro-orbital plexus of mice maintained under isoflurane anesthesia. Blood was placed in tubes containing 50 μL (for 1 mL of total blood) of EDTA ([…]) and then it was centrifuged at 13,300 rpm at + 4 °C for 10 min. Plasma was separated (400–500 μL) and immediately frozen in dry ice and stored at − 80 °C until analysis.
Thirteen mouse plasma samples (naive wt, n = 3; naive mdx, n = 3; vehicle, n = 4; Givinostat 37.5 mg/kg, n = 3) were delivered to Biogazelle in dry ice.
RNA was isolated using the miRNeasy Serum/Plasma Kit (Qiagen) following the manufacturer’s instructions.
Libraries for small RNA sequencing were prepared using the NEBNext small RNA library prep kit (New England Biolabs) according to the manufacturer’s instructions. […] Finally, the resulting small RNA pools were concentrated via ethanol precipitation and quantified using the Qubit 2.0 fluorometer (Thermo Fisher Scientific) prior to sequencing with read length of 75 bp on a NextSeq 500 sequencer (Illumina).
Sequencing reads were filtered based on stringent read quality control. After adapter trimming with Trimmomatic, reads were collapsed and mapped to the reference genome (GRCm38) using Bowtie. Reads up to 25 nucleotides are mapped with no mismatches, while longer reads (mainly from RNA species other than miRNAs) are mapped allowing a maximum of 2 mismatches. […]

mdx mice = experiment: Myofiber cross-sectional area (CSA) in mdx mice; assay type: in vivo, mouse (C57BL/10ScSn-Dmd^mdx/J)
Source text: Tibialis anterior (TA), gastrocnemius (GAS), DIA, and heart were collected from mice maintained under isoflurane anesthesia and sacrificed by cervical dislocation. These muscles were collected from C57BL/10J wt and mdx (5 mice/group) at the end of treatments and from DBA/2J wt and D2.B10 mice (5 mice/group) at two different time points to be examined by a pathologist (for more details see Additional Table 1). Due to the results obtained by the functional tests, muscles from only some treatment groups were analyzed in both DMD models (see Additional Table 1). All the collected muscles were fixed in 10% buffered formalin solution (Bio-optica, Milan, Italy) at + 4 °C for at least 48 h. After fixation, muscular samples were transversely trimmed, caged, and paraffin embedded overnight with an Automated Vacuum Tissue Processor Floor (ETP, Histo-Line Laboratories) and included in paraffin blocks. Serial transverse cross-sections (4 μm thick) were cut with a microtome (Leica RM 2255), collected onto uncoated glass slides, and stained using a standard protocol for hematoxylin and eosin (Mayer hematoxylin & Aqueous G Eosin 1%, Bio-Optica) and Sirius Red staining (Direct Red 80, Sigma-Aldrich). For the image analysis and quantitation, hematoxylin and eosin- and Sirius Red-stained slides were examined with an Olympus BX51 light microscope. From each sample, 1 to 3 random microphotographs at the magnification of × 4 and × 10 (TA, GAS and heart) or × 20 (DIA) were collected using Image-Pro Plus system. The digital images were processed by a pathologist using ImageJ software (U.S. National Institutes of Health, Bethesda, MD, USA). To quantify CSA and centralized nuclei (%) on hematoxylin and eosin-stained sections, one hundred myofibers were manually measured for each muscle/mouse using a tablet pen (Wacom Intruos) and analyzed by the ImageJ software after a linear calibration of 150 μm. The fibrotic area, corresponding to the area stained in red, was compared to the total area of the tissue section, and the results were expressed as percentage fibrosis. The % of fibrosis of muscles in the different treatment groups was expressed by averaging the three values obtained from each muscle.
The deciles of the CSA of the animals treated with Givinostat at the different doses were plotted against the corresponding deciles of the vehicle-treated mice and a linear regression analysis was performed on natural [CSAtreated = b CSAcontrol + a] and log_transformed data [log(CSAtreated) = log(a) + b log(CSAcontrol)]. […] In case of untransformed data, this means that the effect of Givinostat treatment is additive and any decile of the CSAtreatment distribution may be derived from the control data summing up a constant quantity (S) to each fiber AREA of the control group (CSAtreated = CSAcontrol + S). In case of log_transformed data, the effect of Givinostat has to be considered as a multiplicative factor on any generic fiber of the muscle under evaluation, whose size, after the treatment, results K times larger in comparison to the control group value (CSAtreated […] = K × CSAcontrol, with K = 10^a). The S or K parameter values were then determined through an iterative estimation procedure, based on sum of squares (SSQ) minimization, directly comparing the CSA distribution observed in treated animals with that obtained summing up the S value or multiplying by K the CSA values of the control group.

**Q.** For CCN(CC)Cc1ccc2cc(COC(=O)Nc3ccc(C(=O)NO)cc3)ccc2c1 [Givinostat], which “miR-92b-3p in plasma, FC” value (plasma miRNA of mdx mice; T16, significant upregulation) is on record?
**A.** 2.130

**Q.** What about the “miR-449a-5p in plasma, FC” value (plasma miRNA of mdx mice; T16, significantly upregulated) of the same molecule?
**A.** 4.388

**Q.** What about the “DIA fiber CSA, peak value” (mdx mice; 37.5 mg/kg (same as vehicle)) of the same molecule?
**A.** 550 μm^2

**Q.** And the “GAS fiber CSA, peak of distribution” value (mdx mice; 37.5 mg/kg, after 105 days (vehicle peak 500))?
**A.** 1100 μm^2

**Q.** What about the “K, multiplicative factor on GAS fiber CSA vs vehicle” value (mdx mice; 37.5 mg/kg, multiplicative model) of the same molecule?
**A.** 1.72

**Q.** And the “TA fiber CSA, peak value” (mdx mice; 10 and 37.5 mg/kg (vehicle 700))?
**A.** 900 μm^2

**Q.** And the “S, shift effect parameter on TA CSA vs vehicle” value (mdx mice; additive model)?
**A.** 140 μm^2
